# Results taken from patent US10414769B2, “5,8-dimethyl-9-phenyl-5,8-dihydro-6H-pyrazolo[3,4-h]quinazolin-2-yl)-(1H-pyrazol-3-yl)-amines as IGF-1R/IR inhibitors” (Boehringer Ingelheim International GmbH, priority 2015, dated 2019).
# Tests used:
# [1] = system: TC-71 (EWING'S sarcoma) cells; assay: Cell proliferation assay TC-71 (Alamar Blue); type: cell-based; conditions: anti-proliferative effect, TC-71 cells, 72 h; read-out: TC71 EC50
# Protocol: (§1) Cell Proliferation Assays
# (§2) Compounds were tested for their anti-proliferative effects in the TC-71 (EWING'S sarcoma) and HCT 116 (colorectal carcinoma) cancer cell lines in vitro. Published scientific data has described that interference with the IGF-1R signaling pathway reduces the proliferation of TC-71 cells (Manara et al, 2007). Therefore TC-71 cells served as a positive control cell line for monitoring the activity of compounds against IGF-1R-mediated cell proliferation. […] Therefore the HCT 116 cell line served as a negative control.
# (§3) 2000 TC-71 cells or 1000 HCT 116 cells were seeded per well in 180 μL IMDM+10% foetal calf serum (FCS)+penicillin/streptomycin into 96-well microtitre plates. The plates were placed in a cell culture incubator (37° C. in a humidified atmosphere of […]/5% CO2) overnight. The following day, serial dilutions of compounds, prepared in duplicates, were transferred onto the cell layers (controls without compound). The cells were cultivated for a further 72 h in the cell culture incubator. 20 μL of Alamar Blue™ (Serotec Ltd, Dusseldorf, Germany) was added to each well and the plates incubated for 7 h in the cell culture incubator. Fluorescence (extinction wavelength of 544 nm and emission at 590 nm) was then measured and the normalized data fitted by iterative calculation with a sigmoidal curve analysis program (Graph Pad Prism) with a variable Hill slope to determine the EC50 values.
# [2] = system: HCT 116 (colorectal carcinoma) cells; assay: Cell proliferation assay HCT 116 (Alamar Blue); type: cell-based; conditions: Homo sapiens; anti-proliferative effect, HCT 116 cells (negative control line), 72 h
# Protocol: as §1, §2, §3
# human IGF-1R = molecular target: T1, human IGF-1R (Homo sapiens, UniProt P08069); assay: Insulin-like growth factor-1 receptor (IGF-1R)-kinase assay (DELFIA); type: biochemical; conditions: inhibition of IGF-1R-kinase activity
# T1 construct: human IGF-1R (amino acids 964-1370) is expressed as a fusion protein; made in house; host or cells: High Five insect cells (Invitrogen)
# Protocol: Insulin-Like Growth Factor-1 Receptor (IGF-1R)-Kinase Assay
# The kinase activity is measured by DELFIA® assay (dissociation-enhanced lanthanide fluorescence immunoassay, Perkin Elmer). The cytoplasmic kinase domain of human IGF-1R (amino acids 964-1370) is expressed as a fusion protein with a glutathione-S-transferase tag (IGF-1R-GST) in High Five™ Cells (Invitrogen). Enzyme activity is measured in the presence of substances and a control substance. Poly-glutamate-tyrosine peptide (pEY, Sigma Aldrich) and biotinylated pEY (bio-pEY) are used as reaction substrates.
# 10 μL of substance in 25% DMSO are mixed with 30 μL of IGF-1R-GST solution (67 mM HEPES pH 7.4, 15 μg/mL pEY, 1.7 μg/mL bio-pEY, 13.3 mM MgCl2, 3.3 mM dithiothreitol, 0.0033% Brij 35, 2 ng IGF-1R-GST) in 96-well plates. The reactions are started with 10 μL of a 750 μM ATP solution. After 40 min at RT the reactions are stopped with 50 μL of stop solution (250 mM EDTA, 20 mM HEPES pH 7.4). 90 μL from each reaction are transferred onto streptavidin-coated 96-well plates. After 120 min incubation at RT the plates are washed three times with 200 μL phosphate-buffered saline (PBS) per well. The plates are incubated for 60 min with 100 μL of europium-coupled antibody against phospho-tyrosine (diluted 1/2000 in Perkin Elmer DELFIA assay buffer) per well. The plates are washed three times with 200 μL per well of DELFIA washing buffer (Perkin Elmer). 100 μL DELFIA Enhancement Solution (Perkin Elmer) is added to each well, and the plates are incubated for 10 min. The fluorescence signal is measured with a Wallac Victor TRF Reader. IC50 values for the inhibition of the IGF-1R-kinase activity are calculated using the programme GraphPad (Version 3.0).
# T1 sequence (P08069 964-1367 limits assumed): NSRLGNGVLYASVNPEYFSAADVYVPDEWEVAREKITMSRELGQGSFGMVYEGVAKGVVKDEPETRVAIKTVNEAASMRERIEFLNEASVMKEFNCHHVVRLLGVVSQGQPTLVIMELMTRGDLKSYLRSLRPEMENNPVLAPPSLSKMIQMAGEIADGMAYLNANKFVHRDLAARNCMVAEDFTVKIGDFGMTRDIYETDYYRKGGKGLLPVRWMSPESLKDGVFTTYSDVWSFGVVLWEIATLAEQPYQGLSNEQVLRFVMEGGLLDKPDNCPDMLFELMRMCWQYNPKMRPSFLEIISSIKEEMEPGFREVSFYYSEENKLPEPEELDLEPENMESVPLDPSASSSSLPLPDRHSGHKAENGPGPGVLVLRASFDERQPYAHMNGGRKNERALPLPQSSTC
compound,measurement,setting,value
CC(C(=O)OC[C@H]1CCCN1)N1CCN(CCn2ccc(Nc3ncc4c(n3)-c3c(nn(C)c3-c3ccccc3)C[C@H]4C)n2)CC1 (stereo partly drawn) [Compound I-4],EC50,[1],6.82 nM
same,EC50,[2],> 2500 nM
same,IC50,human IGF-1R,1.5 nM
C[C@@H]1Cc2nn(C)c(-c3ccccc3)c2-c2nc(Nc3ccn(CCN4CCN(CC(C)(C)O)C(=O)C4)n3)ncc21 [Compound I-5],EC50,[1],4 nM
same,EC50,[2],> 2500 nM
same,IC50,human IGF-1R,4.8 nM
C[C@@H]1Cc2nn(C)c(-c3ccccc3)c2-c2nc(Nc3ccn(CCN4CCN(CC(=O)OC5CCOC5)CC4)n3)ncc21 (stereo partly drawn) [Compound I-6],EC50,[1],5 nM
same,EC50,[2],> 2500 nM
same,IC50,human IGF-1R,1.1 nM
C[C@@H]1Cc2nn(C)c(-c3ccccc3)c2-c2nc(Nc3ccn(CCN4CCN(CCO)CC4)n3)ncc21 [Compound I-10],EC50,[1],5.93 nM
same,EC50,[2],> 2500 nM
same,IC50,human IGF-1R,2.2 nM
